According to US20250296938A1, “Compounds that Interact with the Ras Superfamily for the Treatment of Cancers, Inflammatory Diseases, Rasopathies, and Fibrotic Disease” (SHY Therapeutics, LLC, priority 2018, published 2025):
Read-outs that look alike come from different tables or passages of the source.

Legend:
Test in all cases: Ras GTP binding domain inhibition assay (Cy3-GTP/Cy5-GTP competition)
KRas Q61H mutant = test system: KRas Q61H mutant; set-up: species or system human; conditions: 20 μM; for KRas Q61H mutant + SOS: % inh.: with SOS; for KRas Q61H mutant: % inh.: without SOS
Outline: (§1)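 His-tagged Ras immobilized on nickel-coated wells in Tris buffer (pH 7.4 or 7.0) with 1 mM MgCl2, 1 mM DTT, 1% DMSO. Compound (20 μM, or serial dilution for IC50) incubated 3 hours at room temperature, ± Sos (residues 556-1049) in final hour. Bound 100 nM Cy3-/Cy5-GTP read after 45 minutes and washing.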

KRas G12C mutant = test system: KRas G12C mutant; set-up: species or system human; conditions: 20 μM; for KRas G12C mutant + SOS: % inh.: with SOS; for KRas G12C mutant: % inh.: without SOS
Outline: as §1

KRas wild type = test system: KRas wild type; set-up: species or system human; conditions: 20 μM; for KRas wild type + SOS: % inh.: with SOS; for KRas wild type: % inh.: without SOS
Outline: as §1

KRas G12D mutant = molecular target: T1, KRas G12D mutant (Homo sapiens, UniProt P01116, G12D); conditions: 20 μM
T1 construct: fused on or other part: His tag, used for capture on nickel-coated plates
Outline: as §1

[1] = with SOS, read-out: KRas G-12D mutant + SOS: % inh.
[2] = without SOS, read-out: KRas G12D mutant: % inh.

KRas Q61H mutant + SOS: % inh. (KRas Q61H mutant) | KRas Q61H mutant: % inh. (KRas Q61H mutant) | KRas G12C mutant + SOS: % inh. (KRas G12C mutant) | KRas G12C mutant: % inh. (KRas G12C mutant) | KRas wild type + SOS: % inh. (KRas wild type) | KRas wild type: % inh. (KRas wild type) | inhibition at 20 µM (KRas G12D mutant; [1]) | inhibition at 20 µM (KRas G12D mutant; [2]) | Compound
D (76-100% inhibition) | B (26-50% inhibition) | D (76-100% inhibition) | B (26-50% inhibition) | D (76-100% inhibition) | B (26-50% inhibition) | 51 to 75% | 26 to 50% | CO[C@H]1CCC(Nc2nc(-c3nccn3C)nc3sc(-c4ccn(C)n4)c(-c4ccccc4)c23)C1 (stereo partly shown) [drawing 860]
C (51-75% inhibition) | B (26-50% inhibition) | C (51-75% inhibition) | 0 (0% inhibition) | B (26-50% inhibition) | 0 (0% inhibition) | 1 to 25% | 26 to 50% | Cn1ccc(-c2sc3nc(-c4nccn4C)nc(NCC4CCOC4)c3c2-c2ccccc2)n1 (stereo not shown) [drawing 861]
B (26-50% inhibition) | B (26-50% inhibition) | A (1-25% inhibition) | 0 (0% inhibition) | B (26-50% inhibition) | B (26-50% inhibition) | 1 to 25% | 1 to 25% | Cn1ccc(-c2sc3nc(-c4nccn4C)nc(NC4CCOCC4)c3c2-c2ccccc2)n1 [drawing 862]
C (51-75% inhibition) | B (26-50% inhibition) | B (26-50% inhibition) | A (1-25% inhibition) | B (26-50% inhibition) | A (1-25% inhibition) | 1 to 25% | 1 to 25% | COC1CCN(c2nc(-c3nccn3C)nc3sc(-c4ccn(C)n4)c(-c4ccccc4)c23)C1 (stereo not shown) [drawing 863]
C (51-75% inhibition) | 0 (0% inhibition) | C (51-75% inhibition) | 0 (0% inhibition) | C (51-75% inhibition) | 0 (0% inhibition) | 26 to 50% | 1 to 25% | COCC(C)Nc1nc(-c2nccn2C)nc2sc(-c3ccn(C)n3)c(-c3ccccc3)c12 (stereo not shown) [drawing 864]
B (26-50% inhibition) | A (1-25% inhibition) | B (26-50% inhibition) | A (1-25% inhibition) | B (26-50% inhibition) | A (1-25% inhibition) | 26 to 50% | 51 to 75% | COCCCN(C)c1nc(-c2nccn2C)nc2sc(-c3ccn(C)n3)c(-c3ccccc3)c12 [drawing 865]
B (26-50% inhibition) | B (26-50% inhibition) | B (26-50% inhibition) | A (1-25% inhibition) | C (51-75% inhibition) | C (51-75% inhibition) | 26 to 50% | 1 to 25% | COCCCNc1nc(-c2nccn2C)nc2sc(-c3ccn(C)n3)c(-c3ccccc3)c12 [drawing 866]
D (76-100% inhibition) | A (1-25% inhibition) | D (76-100% inhibition) | 0 (0% inhibition) | D (76-100% inhibition) | A (1-25% inhibition) | 51 to 75% | 1 to 25% | COc1cccc(-c2sc3nc(-c4nccn4C)nc(N4CCC(OC)C4)c3c2-c2cscn2)c1 (stereo not shown) [drawing 867]
